Positions of bridges follow the written chain, without caps; N, C: chain ends. Non-standard residues stand in square brackets, D forms with d. Residues, ends and D or L forms follow the SMILES beside them. No end group written: not given here.
How the values were obtained:
SARS-CoV-2 3CL^pro [1] = biological target: T1, SARS-CoV-2 3CL^pro (Severe acute respiratory syndrome coronavirus 2, UniProt P0DTD1); experiment: SARS-CoV-2 3CLpro fluorogenic (DABCYL/EDANS substrate) inhibition assay; format: biochemical; conditions: 0.5 µM 3CLpro, n = 3; for IC50: 30 min pre-incubation with inhibitor at RT, 50 µM substrate, 37 °C, pH 7.2, 1 mM TCEP, mean ± SD, read-out: IC50 [µM] ± STD
T1 construct: SARS-CoV-2 3CL^pro (Uniprot entry: P0DTD1, virus strain: hCoV-19/Wuhan/WIV04/2019) was cloned, expressed, and purified; GST (cleaved yes); made in house; host or cells: E. coli Lemo21 (DE3)
Description: The SARS-CoV-2 3CL^pro activity assay was performed using DABCYL-KTSAVLQ/SGFRKME-EDANS (Bachem, Switzerland) as substrate.
SARS-CoV-2 3CL^pro activity assay was performed using a fluorogenic substrate DABCYL-KTSAVLQ↓SGFRKME-EDANS (Bachem, Bubendorf, Switzerland) in a buffer containing 20 mM Tris pH 7.2, 200 mM NaCl, 1 mM EDTA, and 1 mM TCEP [31, 32, 33, 34]. The reaction mixture was pipetted in a Corning 96-well plate (Merck, Darmstadt, Germany) containing 0.5 µM protein. The assay was initiated with the addition of the substrate at a final concentration of 50 µM. The fluorescence intensities were measured at 60 s intervals over 30 min using an Infinite 200 PRO plate reader (Tecan, Männedorf, Switzerland), and the temperature was set to 37 °C. The excitation and emission wavelengths were 360 and 460 nm, respectively.
The activity assay described above investigated the inhibition of SARS-CoV-2 3CL^pro activity by Cro, L- and D-CDPs. 30 µM of the peptides was used for a preliminary screening test.
For the final inhibition assays, 0.5 µM of the protein was mixed with 0–300 µM Cro, 0–150 µM L-CDPs, and 0–125 µM D-CDPs and subsequently incubated for 30 min at RT. An additional experiment was conducted where the substrate and the inhibitor were added simultaneously (without incubation). When the substrate with a final concentration of 50 µM was added to the mixture, the fluorescence intensities were measured at 60 s intervals over 30 min using an Infinite 200 PRO plate reader (Tecan, Männedorf, Switzerland). The temperature was set to 37 °C, and the excitation and emission wavelengths were 360 and 460 nm, respectively. Inhibition assays were performed in triplicate.
The IC50 value was calculated by plotting the initial velocity against various concentrations of the combined molecules using a dose-response curve in GraphPad Prism5 software […]. Data are presented as mean ± SD.

[2] = test system: all cell types investigated; conditions: rapid translocation efficiency; cited from earlier work
Description: These properties were mainly determined by the overall positive net surface charge distribution of crotamine. Characterised as a novel cell-penetrating polypeptide (CPP) nanocarrier, Cro has biotechnological ...

SARS-CoV-2 3CL^pro [3] = biological target: T1, SARS-CoV-2 3CL^pro; experiment: Determination of inhibition mode (Lineweaver-Burk plot); format: biochemical; conditions: 0.5 µM 3CLpro, 30 min incubation at RT, triplicate
Description: The inhibition mode was determined using different final concentrations of the inhibitors and substrate. […] The remaining L-peptides were not tested.
Briefly, 0.5 µM SARS-CoV-2 3CL^pro was incubated with the inhibitor, in various concentrations, for 30 min at RT. Subsequently, the reaction was initiated by adding the corresponding concentration series of the substrate. The data were analysed using a Lineweaver-Burk plot; therefore, the reciprocal of velocity (1/V) vs the reciprocal of the substrate concentration (1/[S]) was compared. All measurements were performed in triplicate, and data are presented as mean ± SD.

pepsin = pepsin (Sus scrofa, UniProt P00791); experiment: L- and D-peptide stability against pepsin hydrolysis (simulated gastric fluid); format: in vitro ADME; conditions: simulated gastric fluid: 3.2 mg/mL pepsin, pH 1.0, 37 °C, 4 and 8 h; RP-HPLC
Sequence of pepsin (P00791 60-385): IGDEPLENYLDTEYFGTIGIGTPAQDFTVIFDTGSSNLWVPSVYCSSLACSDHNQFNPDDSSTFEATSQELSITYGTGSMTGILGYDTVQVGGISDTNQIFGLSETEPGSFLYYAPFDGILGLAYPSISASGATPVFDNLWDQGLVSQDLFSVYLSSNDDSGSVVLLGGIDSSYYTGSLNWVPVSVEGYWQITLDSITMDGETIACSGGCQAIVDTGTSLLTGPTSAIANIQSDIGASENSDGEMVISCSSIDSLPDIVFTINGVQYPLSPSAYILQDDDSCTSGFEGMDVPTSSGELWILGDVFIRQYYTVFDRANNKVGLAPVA
Description: (§1) As protein hydrolysis is initiated by pepsin, we have performed a hydrolysis experiment simulating gastric fluid for both selected L- and D-peptides. After incubation over 4 and 8 h, the sample was analysed using RP-HPLC (Supplementary Figure S8).
(§2) The preparation of the pepsin solution was performed as described before. The experiment solution contains 2 mg/mL NaCl, 3.2 mg/mL pepsin, and 80 mM HCL at a pH 1.0. This solution simulated gastric fluid. […] Samples were taken after 0 h, 4 h, and 8 h. The samples were analysed by reversed-phase high-performance liquid chromatography (RP-HPLC). The RP-HPLC system (Agilent Technologies, Santa Clara, CA, USA; 1200 series) consisted of a manual injector, quaternary pump, a thermostatted column compartment, and a variable wavelength detector. Chromatography was performed with a C18 column (Agilent Technologies, Santa Clara, CA, USA; ZORBAX 300SB-C18 5 µm, 4.6 × 250 mm) at 25 °C and 214 nm with a flow rate of 1 mL/min. The sample injection volume was 20 µL. Chromatograms were recorded and analysed with the Agilent software ChemStation (G2175BA; B03.01). Mobile phases were acetonitrile (A) and water (B), each supplemented with 0.15% trifluoroacetic acid (TFA) (v/v). The samples were measured isocratically at 10% solvent A for 30 min.

SARS-CoV-2 3CL^pro [4] = biological target: T1, SARS-CoV-2 3CL^pro; experiment: Inhibitor stability over 24 h (24 h inhibition experiment); format: biochemical; conditions: 0.5 µM 3CLpro with 5 µM peptide, 1/2 h to 24 h at RT, triplicate
Description: Briefly, 0.5 µM SARS-CoV-2 3CL^pro was incubated with 5 µM of the peptide and incubated for 1/2 h, 1 h, 2 h, 3 h, 4 h, 5 h, and 24 h at RT. The control was performed with the 3CL^pro in the absence of the peptide and measured together after each time point. Subsequently, the reaction was initiated by the addition of the substrate. All measurements were performed in triplicate, and data are presented as mean ± SD.

SARS-CoV-2 3CL^pro [5] = biological target: T1, SARS-CoV-2 3CL^pro; experiment: Detergent-based (Triton X-100) control assay for aggregation-based promiscuous inhibition; format: biochemical; conditions: 0.001%, 0.01%, 0.1% Triton X-100; four peptide concentrations; triplicate
Description: A detergent-based control assay was performed to exclude inhibitors that possibly act as aggregators of the 3CL^pro by adding 0.001%, 0.01%, and 0.1% of Triton X-100 to the reaction. […] All measurements were performed in triplicate, and data are presented as mean ± SD.

Vero CCL-81 cells = experiment: MTT cell viability assay; format: cell-based, African green monkey; conditions: n = 3
Description: Therefore, Vero cells were cultivated in DMEM medium supplemented with 2% fetal calf serum (FCS) and 1% penicillin/streptomycin. A total of 2000 cells per well in a volume of 100 µL were seeded on flat-bottomed 96-well plates (VWR, Radnor, USA) and incubated in a 95% humidified atmosphere with 5% CO2 at 37 °C for 24 h. Subsequently, the cells were treated with 0.2, 1, 5, 10, 25, 50, and 98 µM of each molecule at 37 °C with 5% CO2 for 24 h.
According to the manufacturer’s instructions, cell viability was measured using the Cell Proliferation Kit I (Roche, Basel, Switzerland) in a 3-fold determination. The absorbance of the formazan product was determined by measuring the absorption at 570 nm and subtracted by the absorbance at 690 nm in a microplate reader (BMG Labtech, Ortenberg, Germany). The results were normalised to the mean value of cells treated with medium only. As a […] control for cytotoxicity, 0.1% Triton X-100 diluted in the medium was used. Cell viability was calculated according to Equation (2):(T/C) × 100%(2) where T and C represented the optical density of the treated well and control groups, respectively.

[6] = test system: SARS-CoV-2 B1.1 isolate (NRW-42) in Vero cells; format: cell-based
[7] = L- and D-peptide stability against pepsin hydrolysis (simulated gastric fluid); format: in vitro ADME; conditions: simulated gastric fluid with pepsin (3.2 mg/mL); simulated gastric fluid: 2 mg/mL NaCl, 3.2 mg/mL pepsin, 80 mM HCl, pH 1.0; 37 °C, 500 rpm; after 8 h; RP-HPLC C18, 214 nm; read-out: Peptide amount remaining after pepsin incubation
Description: as §1, §2

## YKQCHKKGGHCFPKEKICLPPSSDFGKMDCRWRWKCCKKGSG (disulfide 4-36, 11-30, 18-37) [Crotamine]
SARS-CoV-2 3CL^pro [1]
  IC50: 40 ± 3.1 µM
[2]
  Time for translocation into cells: ≤ 5 min

## COC(=O)[C@H](CCCCN)NC(=O)[C@H](CCCCN)NC(=O)[C@H](CO)NC(=O)[C@H](CO)NC(=O)[C@H](CCCCN)NC(=O)[C@H](Cc1c[nH]c2ccccc12)NC(=O)[C@H](CCCNC(=N)N)NC(=O)[C@H](Cc1c[nH]c2ccccc12)NC(=O)[C@H](CCCNC(=N)N)NC(=O)[C@H](CS)NC(=O)[C@H](CC(=O)O)NC(=O)[C@H](CCSC)NC(=O)[C@H](CCCCN)NC(C)=O [L-CDP3] (Ac-KMDCRWRWKSSKK-OMe)
SARS-CoV-2 3CL^pro [1]
  IC50: 8.5 ± 1 µM

## COC(=O)[C@@H](CCCCN)NC(=O)[C@@H](CCCCN)NC(=O)[C@@H](CS)NC(=O)[C@@H](CS)NC(=O)[C@@H](CCCCN)NC(=O)[C@@H](Cc1c[nH]c2ccccc12)NC(=O)[C@@H](CCCNC(=N)N)NC(=O)[C@@H](Cc1c[nH]c2ccccc12)NC(=O)[C@@H](CCCNC(=N)N)NC(=O)[C@@H](CS)NC(=O)[C@@H](CC(=O)O)NC(=O)[C@@H](CCSC)NC(=O)[C@@H](CCCCN)NC(C)=O [D-CDP1] (Ac-[dK][dM][dD][dC][dR][dW][dR][dW][dK][dC][dC][dK][dK]-OMe)
SARS-CoV-2 3CL^pro [3]
  Inhibition Type: Competitive
pepsin
  Stability against pepsin hydrolysis (in words): stable against pepsin hydrolysis
SARS-CoV-2 3CL^pro [4]
  Inhibition of SARS-CoV-2 3CLpro over 24 h (stability of inhibitor): constant inhibition
SARS-CoV-2 3CL^pro [5]
  Aggregation-based inhibition (inhibition diminished by detergent): not observed
Vero CCL-81 cells
  Cytotoxic effect at the calculated IC50 concentrations: no cytotoxic effect
[6]
  Viral RNA in cell culture supernatant: significant decrease in viral RNA

## COC(=O)[C@H](CCCCN)NC(=O)[C@H](CCCCN)NC(=O)[C@H](CS)NC(=O)[C@H](CS)NC(=O)[C@H](CCCCN)NC(=O)[C@H](Cc1c[nH]c2ccccc12)NC(=O)[C@H](CCCNC(=N)N)NC(=O)[C@H](Cc1c[nH]c2ccccc12)NC(=O)[C@H](CCCNC(=N)N)NC(=O)[C@H](CS)NC(=O)[C@H](CC(=O)O)NC(=O)[C@H](CCSC)NC(=O)[C@H](CCCCN)NC(C)=O [L-CDP1] (Ac-KMDCRWRWKCCKK-OMe)
SARS-CoV-2 3CL^pro [1]; dose-dependent study
  Concentration giving 100% protease inhibition: 30 µM
SARS-CoV-2 3CL^pro [3]
  Inhibition Type: Competitive
[7]
  remaining at 8 h: ~50%
SARS-CoV-2 3CL^pro [4]
  Inhibition of SARS-CoV-2 3CLpro over 24 h (stability of inhibitor): constant inhibition
SARS-CoV-2 3CL^pro [5]
  Aggregation-based inhibition (inhibition diminished by detergent): not observed
